This is an account of results in US6809096B1, “Phenanthroline-7-one derivatives and their therapeutic uses” (Laboratoire L. Lafon, priority 1999, dated 2004).

As a reminder, the IC50 is the concentration at which inhibition is half-maximal.

For data set [1], the system named is 12 human cancer cell lines (U-373MG, U-87MG, SW1088, A549, A-427, HCT-15, LoVo, T-47D, MCF7, J82, T24, PC-3). Description: Cytotoxic activity on tumour cell lines in culture (MTT test). In kind it is cell-based. The conditions noted are these: mean IC50 calculated from the individual cytotoxic activities on each of the 12 tumour lines, 72 hours incubation. The procedure:
1—Cytotoxic Activity on Tumour Cell Lines in Culture (MTT Test)
The influence of the compounds of formula (I) and of (Ia) on tumour cells was evaluated using the MTT calorimetric test (T. Mosman, J. Immunol. Methods, 1983; 65: 55-63, J. Carmichael et al., Cancer Res. 1987; 47: 936-942).
The principle of the MTT test is based on the mitochondrial reduction by metabolically active alive cells of the yellow-coloured product MTT (3-(4,5-dimethylthiazol-2-yl)-2,5-diphenyltetrazolium bromide) to a blue-coloured product, formazan. The amount of formazan thus obtained is directly proportional to the amount of live cells present in the culture well or wells. This amount of formazan is measured by spectrophotometry.
The cell lines are maintained in monolayer culture at 37° C. in stoppered culture dishes containing 25 MM HEPES MEM (Minimum Essential Medium) base medium. This medium is well suited to the growth of a range of varied diploid or primary mammalian cells. This medium is subsequently supplemented: […]
with an amount of 5% of FCS (Foetal Calf Serum) decomplemented at 56° C. for 1 hour, with 0.6 mg/ml of L-glutamine, with 200 IU/ml of penicillin, with 200 μg/ml of streptomycin, with 0.1 mg/ml of gentamicin.
The 12 human cancer cell lines which were used were obtained from the American Type Culture Collection (ATCC, Rockville, Md., USA). These 12 cell lines are:
U-373MG (ATCC code: HTB-17) and U-87MG (ATCC code: HTB-14), which are two glioblastomas, SW1088 (ATCC code: HTB-12) which is an astrocytoma, A549 (ATCC code: CCL-185) and A-427 (ATCC code: HTB-53), which are two non-small-cell lung cancers, HCT-15 (ATCC code: CCL-225) and LoVo (ATCC code: CCL-229), which are two colorectal cancers, T-47D (ATCC code: HTB-133) and MCF7 (ATCC code: HTB-22), which are two breast cancers, J82 (ATCC code: HTB-1) and T24 (ATCC code: […]), which are two bladder cancers, PC-3 (ATCC code: CRL-1435), which is a prostate cancer.
Experimentally: 100 μl of a cell suspension comprising 20 000 to 50 000 (depending on the cell type used) cells/ml of culture medium are inoculated in flat-bottomed 96-well multi-well plates and are incubated at 37° C. under an atmosphere comprising 5% of CO2 and 70% humidity. After incubating for 24 hours, the culture medium is replaced with 100 μl of fresh medium comprising either the various test compounds at concentrations varying from 10^−5 to 10^−10 M of the solvent used to dissolve the -test products (control condition). After incubating for 72 hours under the above conditions, the culture medium is replaced with 100 μl of a yellowish solution of MTT dissolved, in a proportion of 1 mg/ml, in RPMI 1640. The microplates are reincubated for 3 hours at 37° C. and then centrifuged for 10 minutes at 400 g. The yellowish MTT solution is removed and the blue formazan crystals formed at the cellular level are dissolved in 100 μl of DMSO. The microplates are subsequently agitated for 5 minutes. The intensity of the resulting blue coloration, and thus of the conversion of the yellow MTT product into blue formazan by the cells which are still alive at the end of the experiment, is quantified by spectrophotometry using a device of DYNATECH IMOASSAY SYSTEM type at wavelengths of 570 nm and 630 nm corresponding respectively to the maximum absorption wavelengths of formazan and to the background noise. Software built into the spectrophotometer calculates the mean optical density values and the standard deviation (Std. Dev.) and standard error of the mean (SEM) values.
The inhibitory activity on the cell growth of the compounds of formula (I) and (Ia) on the various tumour cell lines was measured in comparison with that of the natural product.

Data set [2] is described as follows: Determination of the maximum tolerated dose (MTD). The settings on record: mouse, in vivo, ip; B6D2F1/Jico mice, single intraperitoneal administration, survival over 14 days, doses 2.5 to 160 mg/kg; read-out: DMT (mg/kg) (Maximum Tolerated Doses). As for the experimental part: (§1) 2—Determination of the Maximum Tolerated Dose (MTD)
(§2) The evaluation of the maximum tolerated dose was carried out on B6D2F1/Jico mice aged from 4 to 6 weeks. The compounds were administered intraperitoneally at increasing doses ranging from 2.5 to 160 mg/kg. The value of the MTD (expressed in mg/kg) is determined from the observation of the survival rates of the animals over a period of 14 days after a single administration of the product under consideration. The change in the weight of the animals is also monitored over this period. When that the value of the MTD is greater than 160 mg/kg, the value of the MTD is categorized as 160 mg/kg by default.

In another data set the test system is B6D2F1/Jico mice. Description: Determination of the maximum tolerated dose (MTD). The conditions noted are these: mouse, in vivo, ip. As for the experimental part:
as §1, §2

A further data set relates to lymphoma L 1210. Put plainly: In vivo antitumour activity, subcutaneous lymphoma L 1210, survival (T/C). More on the design: species or system mouse. The procedure:
The model of lymophoma L 1210 is a model of L 1210 leukemia cells of mouse origin grafted subcutaneously in the mouse. They give rise, in 100% of cases, to a rapid-growth subcutaneous solid tumour (L 1210 s.c.).
When the MTD value of a product was determined, its in vivo antitumour activity was characterized at the MTD/2, MTD/4 and MTD/8 doses on the models of mammary adenocarcinoma of mouse origin HS-MXT and of mouse mammary carcinoma HI-MXT and on the model of subcutaneous lymphoma L 1210.
In all the examples presented below, whatever the model, the control condition is represented by a batch of 9 or 15 mice to which is administered, for 3 consecutive weeks and at the rate of 3 administrations (Monday, Wednesday and Friday) per week, a volume of 0.2 ml of physiological saline comprising the solvent used to dissolve the various compounds of formula (I) and (Ia) used.
ii)—The survival rate of the mice is calculated in the form or a ratio T/C, where: [formula]
This ratio represents the mean survival time of the […] of the batch of treated mice with respect to the mean survival time of the median mouse of the batch of control mice. Thus, a molecule induces a significant (P<0.05) increase in the survival of the animals when the T/C index exceeds 130%. On the other hand, it has a toxic effect when this T/C value is less than 70%. […]

Turning to `O=C1c2cccnc2-c2nccc3ccnc1c23` [CRL 8293, 7H-Pyrido[4,3,2-de][1,10]phenanthroline-7-one], the IC50 in data set [1] (Homo sapiens) was 1250 nM. In data set [2], the MTD at 14 days is 10 mg/kg.
Turning to `O=C1c2ncccc2-c2nccc3ccnc1c23` [CRL 8294, 7H-Pyrido[4,3,2-de][1,7phenanthroline-7-one], in data set [1], the half-inhibitory concentration (IC50) was 1450 nM. For the same compound, the “DMT (mg/kg) (Maximum Tolerated Doses)” value in the data set on B6D2F1/Jico mice came out at 10 mg/kg. Further, the “mean survival time of the median mouse (in words)” value with lymphoma L 1210 (subcutaneous lymphoma L 1210, vs control mice) is recorded as “significant extension”. For the same compound, the “T/C (expressed a %)” value in the data set with lymphoma L 1210 (survival ratio treated/control, L 1210 s.c., 1.25 mg/kg intraperitoneally, 3 injections per week for 3 weeks from D7) is recorded as 136%.
